Measurements reported in patent US20210323981A1, “FREE AMINO COMPOUNDS FOR THE TREATMENT AND PROPHYLAXIS OF BACTERIAL INFECTION” (Hoffmann-La Roche Inc., priority 2018, published 2021).

Experiments:
Assay type in all cases: cell-based
A. baumannii (ATCC17978) = experiment: 50% growth inhibitory concentration (IC50) determination assay, A. baumannii; conditions: Acinetobacter baumannii, growth inhibition, Iso-Sensitest broth, OD 600 nm over 16 h, <0.098 = detection limit
Protocol: (§1) The in vitro antimicrobial activity of the compounds against S. aureus (ATCC29213), K. pneumoniae (ATCC10031), and A. baumannii (ATCC17978), was determined according to the following procedure: The assay used a 10-points Iso-Sensitest broth medium to measure quantitatively the in vitro activity of the compounds against S. aureus ATCC29213, K. pneumoniae ATCC 10031, and A. baumannii ATCC17978. Stock compounds in DMSO were serially two-fold diluted (range from 50 to 0.097 μM final concentration) in 384 wells microtiter plates and inoculated with 49 μL the bacterial suspension in Iso-Sensitest broth medium to have a final cell concentration of ˜5×10^5 CFU/mL in a final volume/well of 50 μL/well. Microtiter plates were incubated at 35±2° C. Bacterial cell growth was determined with the measurement of optical density at k=600 nm each 20 minutes over a time course of 16 h. Growth inhibition was calculated during the logarithmic growth of the bacterial cells with determination of the concentration inhibiting 50% (IC50) of the growth.

[1] = tested on: K. pneumoniae (ATCC10031); experiment: 50% growth inhibitory concentration (IC50) determination assay, K. pneumoniae; conditions: Klebsiella pneumoniae, growth inhibition, Iso-Sensitest broth, OD 600 nm over 16 h, <0.098 μM = detection limit
Protocol: as §1

S. aureus (ATCC29213) = experiment: 50% growth inhibitory concentration (IC50) determination assay, S. aureus; conditions: Staphylococcus aureus, growth inhibition, Iso-Sensitest broth, OD 600 nm over 16 h, <0.098 μM = detection limit
Protocol: as §1

IC50 (A. baumannii (ATCC17978)) [µM]	IC50 [1] [µM]	IC50 (S. aureus (ATCC29213)) [µM]	SMILES
0.0793	< 0.098	< 0.098	CNc1cc(F)c(Cl)c2c1[nH]c1ncc(-c3cnc4c(c3)c(=O)c(C(=O)O)cn4C)c(N3CC[C@]4(C[C@H]4N)C3)c12 [Example 4.04, 6-[4-[(2R,3S)-2-amino-5-azaspiro[2.4]heptan-5-yl]-5-chloro-6-fluoro-8-(methylamino)-9H-pyrido[2,3-b]indol-3-yl]-1-methyl-4-oxo-1,8-naphthyridine-3-carboxylic acid]
0.417	< 0.098	< 0.098	CNc1cc(F)c(C#N)c2c1[nH]c1ncc(-c3cnc4c(c3)c(=O)c(C(=O)O)cn4C)c(N3CC[C@]4(C[C@H]4N)C3)c12 [Example 5.02, 6-[4-[(2R,3S)-2-amino-5-azaspiro[2.4]heptan-5-yl]-5-cyano-6-fluoro-8-(methylamino)-9H-pyrido[2,3-b]indol-3-yl]-1-methyl-4-oxo-1,8-naphthyridine-3-carboxylic acid]
0.155	< 0.098	< 0.098	CNc1cc(F)c(F)c2c1[nH]c1ncc(-c3cnc4c(c3)c(=O)c(C(=O)O)cn4C)c(N3CCC4(C[C@@H]4N)C3)c12 (mixture of isomers) [Example 2.01, Trans-6-[4-(2-amino-5-azaspiro[2.4]heptan-5-yl)-5,6-difluoro-8-(methylamino)-9H-pyrido[2,3-b]indol-3-yl]-1-methyl-4-oxo-1,8-naphthyridine-3-carboxylic acid]

The next lines start with the compound.

SMILES	IC50 (A. baumannii (ATCC17978)) [µM]	IC50 [1] [µM]	IC50 (S. aureus (ATCC29213)) [µM]
CNc1cc(F)c(F)c2c1[nH]c1ncc(-c3cnc4c(c3)c(=O)c(C(=O)O)cn4C)c(N3CC[C@H]4CN(CCCN)C[C@H]43)c12 (relative stereo) [Example 1.07, cis-6-[5,6-Difluoro-8-(methylamino)-4-[5-(3-aminopropyl)-2,3,3a,4,6,6a-hexahydropyrrolo[2,3-c]pyrrol-1-yl]-9H-pyrido[2,3-b]indol-3-yl]-1-methyl-4-oxo-1,8-naphthyridine-3-carboxylic acid]	4.79	0.429	1.67
CNc1cc(F)c(F)c2c1[nH]c1ncc(-c3cnc4c(c3)c(=O)c(C(=O)O)cn4C)c(N3CC4CC4(CN)C3)c12 (stereo not drawn) [Example 1.06, 6-[4-[1-(Aminomethyl)-3-azabicyclo[3.1.0]hexan-3-yl]-5,6-difluoro-8-(methylamino)-9H-pyrido[2,3-b]indol-3-yl]-1-methyl-4-oxo-1,8-naphthyridine-3-carboxylic acid]	2.48	< 0.098	0.342
CNc1cc(F)c(F)c2c1[nH]c1ncc(-c3cnc4c(c3)c(=O)c(C(=O)O)cn4C)c(N3CCC(CN)C3)c12 (stereo not drawn) [Example 1.11, 6-[4-[3-(Aminomethyl)pyrrolidin-1-yl]-5,6-difluoro-8-(methylamino)-9H-pyrido[2,3-b]indol-3-yl]-1-methyl-4-oxo-1,8-naphthyridine-3-carboxylic acid]	3.62	< 0.098	0.294
CNc1cc(F)c(F)c2c1[nH]c1ncc(-c3cnc4c(c3)c(=O)c(C(=O)O)cn4C)c(N3CC[C@@H](N)C3)c12 [Example 1.17, 6-[4-[(3R)-3-Aminopyrrolidin-1-yl]-5,6-difluoro-8-(methylamino)-9H-pyrido[2,3-b]indol-3-yl]-1-methyl-4-oxo-1,8-naphthyridine-3-carboxylic acid]	2.95	< 0.098	0.532
CNc1cc(F)c(F)c2c1[nH]c1ncc(-c3cnc4c(c3)c(=O)c(C(=O)O)cn4C)c(N3CCCC3CN)c12 (stereo not drawn) [Example 1.09, 6-[4-[2-(Aminomethyl)pyrrolidin-1-yl]-5,6-difluoro-8-(methylamino)-9H-pyrido[2,3-b]indol-3-yl]-1-methyl-4-oxo-1,8-naphthyridine-3-carboxylic acid]	3.72	0.25	0.513
CNc1cc(F)c(C#N)c2c1[nH]c1ncc(-c3cnc4c(c3)c(=O)c(C(=O)O)cn4C)c(N3C[C@H]4CC[C@@H](N)[C@H]4C3)c12 (relative stereo) [Example 1.13, 6-[5-Cyano-6-fluoro-8-(methylamino)-4-[rel-(3aR,4R,6aS)-4-amino-3,3a,4,5,6,6a-hexahydro-1H-cyclopenta[c]pyrrol-2-yl]-9H-pyrido[2,3-b]indol-3-yl]-1-methyl-4-oxo-1,8-naphthyridine-3-carboxylic acid]	2.79	0.128	0.151
